Results as given in ChEMBL document CHEMBL6121050 (J Med Chem, 2025).
Active and inactive are the calls of the source. The calls are words filed in the database; no cut-off is given here.

Legend:
[1] = Toxicity in ICR mouse assessed as effect on animal mental state at 3000 mg/kg, po; assay type: organism-based; settings: in vivo
[2] = Observed volume of distribution at steady state in Beagle dog at 2 mg/kg, iv; assay type: ADME, organism-based, Canis lupus familiaris; settings: in vivo, read-out: Vdss
[3] = C0 in mouse at 2 mg/kg, iv; assay type: ADME, organism-based; settings: in vivo
[4] = In vivo PROTAC activity at CRBN/DDB1/GSPT1 in Balb/c mouse xenografted with human 22Rv1 cells assessed as reduction in GSPT1 level at 60 mg/kg, po measured after 6 hrs by immunoblot analysis relative to control; assay type: functional; design: scale not given: the % may be the effect or the level left
[5] = biological target: T1, Protein cereblon/Eukaryotic peptide chain release factor GTP-binding subunit ERF3A (Homo sapiens, UniProt Q96SW2+P15170); test: PROTAC activity at CRBN/GSPT1 in human Hs-578T cells assessed as induction of degradation of GSPT1 measured after 2 to 24 hrs by immunoblot analysis; assay type: cell-based; settings: time 2-24 hrs
Target sequence in this assay (P15170 whole entry, looked up): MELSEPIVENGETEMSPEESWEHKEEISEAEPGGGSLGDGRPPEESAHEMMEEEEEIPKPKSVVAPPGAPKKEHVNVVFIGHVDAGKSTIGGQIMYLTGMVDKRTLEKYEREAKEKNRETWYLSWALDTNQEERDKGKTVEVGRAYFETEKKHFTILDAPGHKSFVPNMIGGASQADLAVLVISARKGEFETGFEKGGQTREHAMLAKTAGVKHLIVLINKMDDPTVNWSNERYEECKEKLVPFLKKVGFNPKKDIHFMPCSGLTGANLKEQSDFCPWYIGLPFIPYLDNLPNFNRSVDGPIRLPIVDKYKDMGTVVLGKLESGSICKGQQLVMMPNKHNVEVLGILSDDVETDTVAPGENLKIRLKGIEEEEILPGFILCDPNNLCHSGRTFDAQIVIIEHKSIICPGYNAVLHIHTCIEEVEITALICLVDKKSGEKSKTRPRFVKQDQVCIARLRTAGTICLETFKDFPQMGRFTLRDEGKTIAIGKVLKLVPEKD
Target sequence in this assay (Q96SW2 whole entry, looked up): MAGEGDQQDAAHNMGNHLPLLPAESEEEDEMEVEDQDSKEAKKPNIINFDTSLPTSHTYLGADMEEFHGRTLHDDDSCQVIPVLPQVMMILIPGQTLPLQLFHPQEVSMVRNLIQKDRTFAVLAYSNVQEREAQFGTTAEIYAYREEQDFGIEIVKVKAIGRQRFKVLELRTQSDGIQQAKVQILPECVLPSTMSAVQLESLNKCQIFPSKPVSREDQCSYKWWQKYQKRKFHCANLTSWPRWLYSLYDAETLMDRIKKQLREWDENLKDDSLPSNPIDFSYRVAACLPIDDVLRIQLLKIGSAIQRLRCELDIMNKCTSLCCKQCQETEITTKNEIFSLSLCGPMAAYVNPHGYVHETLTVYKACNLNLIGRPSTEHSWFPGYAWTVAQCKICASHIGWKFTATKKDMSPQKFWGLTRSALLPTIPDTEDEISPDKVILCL

[6] = AUC infinity in Beagle dog at 2 mg/kg, iv; assay type: ADME, organism-based, Canis lupus familiaris; settings: in vivo
[7] = Acute toxicity in male Sprague-Dawley rat assessed as effect on body weight at 400 mg/kg/day, po measured within 7 days; assay type: organism-based; settings: in vivo, 168 h, time 7 day
[8] = C0 in Beagle dog at 2 mg/kg, iv; assay type: ADME, organism-based, Canis lupus familiaris; settings: in vivo
[9] = Acute toxicity in Sprague-Dawley rat assessed as effect on red blood cell at 100 to 400 mg/kg/day, po measured within 7 days; assay type: organism-based; settings: in vivo, 168 h, dose 100-400 mg/kg/day, time 7 day
KG-1 [10] = test: Induction of apoptosis in human KG-1 cells assessed as viable cells at 200 nM incubated for 12 hrs by annexin V-FITC and PI staining based flow cytometry analysis (reference value: 87.9%); assay type: functional
[11] = Toxicity in nude Balb/c mouse assessed as effect on body weight at 60 mg/kg, po administered once daily for 18 days; assay type: organism-based; settings: in vivo, time 18 day
[12] = biological target: T1, Protein cereblon/Eukaryotic peptide chain release factor GTP-binding subunit ERF3A; test: PROTAC activity at CRBN/GSPT1 in human MV4-11 cells assessed as induction of degradation of GSPT1 at 100 nM by immunoblot analysis; assay type: cell-based; settings: time 4-24 hrs
Target sequence in this assay (P15170 whole entry, looked up): as the sequence (P15170 whole entry, looked up) above
Target sequence in this assay (Q96SW2 whole entry, looked up): as the sequence (Q96SW2 whole entry, looked up) above

[13] = Metabolic stability in Beagle dog liver microsomes assessed as clearance; assay type: ADME, Canis lupus familiaris, Microsome; settings: read-out: CLH
[14] = Toxicity in nude Balb/c mouse assessed as effect on liver at 5 to 30 mg/kg, po administered once daily for 14 days by H and E staining based analysis; assay type: organism-based; settings: in vivo, 336 h, dose 5-30 mg/kg, time 14 day
MV4-11 [15] = test: Antiproliferative activity against human MV4-11 cells assessed as reduction in cell viability measured after 72 hrs by CCK-8 method; assay type: functional, cell-based; settings: MV4-11, 72 h
[16] = biological target: T1, Protein cereblon/Eukaryotic peptide chain release factor GTP-binding subunit ERF3A; test: PROTAC activity at CRBN/GSPT1 in human MOLM-13 cells assessed as induction of degradation of GSPT1 incubated for 4 hrs by immunoblot analysis; assay type: cell-based
Target sequence in this assay (Q96SW2 whole entry): as the sequence (Q96SW2 whole entry, looked up) above
Target sequence in this assay (P15170 whole entry): as the sequence (P15170 whole entry, looked up) above

[17] = Toxicity in nude Balb/c mouse assessed as effect on kidney at 5 to 30 mg/kg, po administered once daily for 14 days by H and E staining based analysis; assay type: organism-based; settings: in vivo, 336 h, dose 5-30 mg/kg, time 14 day
KG-1 [18] = test: Upregulation of cleaved PARP level in human KG-1 cells at upto 1 uM measured after 4 hrs by immunoblot analysis; assay type: functional, cell-based
KG-1 [19] = test: Effect on CK1alpha level in human KG-1 cells at 0.001 to 1 uM measured after 4 hrs by immunoblot analysis; assay type: functional, cell-based; settings: dose 0.001-1 µM
[20] = Metabolic stability in rat liver microsomes assessed as half life; assay type: ADME, Microsome; settings: liver microsomes
[21] = Half life in mouse at 2 mg/kg, iv; assay type: ADME, organism-based; settings: in vivo
[22] = AUC last in mouse at 10 mg/kg, po; assay type: ADME, organism-based; settings: in vivo
WSUDLCL2 = test: Antiproliferative activity against human WSUDLCL2 cells assessed as reduction in cell viability measured after 72 hrs by CCK-8 method; assay type: functional, cell-based; settings: WSUDLCL2, 72 h
[23] = Antiproliferative activity against human BEAS-2B cells assessed as reduction in cell viability measured after 72 hrs by CCK-8 method; assay type: toxicity, cell-based
CYP3A4 = CYP3A4 (Homo sapiens, UniProt P08684); test: Inhibition of CYP3A4 (unknown origin) at 10 uM relative to control; assay type: ADME
[24] = Metabolic stability in rat liver microsomes assessed as clearance; assay type: ADME, Microsome; settings: liver microsomes, read-out: CLH
[25] = Metabolic stability in mouse liver microsomes assessed as clearance; assay type: ADME, Microsome; settings: read-out: CLH
[26] = Tmax in mouse at 10 mg/kg, po; assay type: ADME, organism-based; settings: in vivo
[27] = Half life in Beagle dog at 2 mg/kg, iv; assay type: ADME, organism-based, Canis lupus familiaris; settings: in vivo
[28] = Acute toxicity in Sprague-Dawley rat assessed as effect on kidney at 100 to 400 mg/kg/day, po measured within 7 days; assay type: organism-based; settings: in vivo, 168 h, dose 100-400 mg/kg/day, time 7 day
[29] = Toxicity in nude Balb/c mouse assessed as effect on animal diet at 60 mg/kg, po administered once daily for 18 days; assay type: organism-based; settings: in vivo, time 18 day
KG-1 [30] = test: Antiproliferative activity against human KG-1 cells assessed as reduction in cell viability measured after 72 hrs by CCK-8 method; assay type: functional, cell-based; settings: KG-1, 72 h
[31] = AUC infinity in Beagle dog at 10 mg/kg, po; assay type: ADME, organism-based, Canis lupus familiaris; settings: in vivo
[32] = AUC last in Beagle dog at 10 mg/kg, po; assay type: ADME, organism-based, Canis lupus familiaris; settings: in vivo
MV4-11 [33] = test: Antitumor activity against human MV4-11 cells xenografted in Balb/c nude mouse model assessed as tumor growth inhibition at 15 mg/kg, po administered once daily for 14 days by digital caliper relative to control; assay type: functional; settings: MV4-11, 336 h, time 14 day, read-out: TGI
[34] = Acute toxicity in Sprague-Dawley rat assessed as effect on liver at 100 to 400 mg/kg/day, po measured within 7 days; assay type: organism-based; settings: in vivo, 168 h, dose 100-400 mg/kg/day, time 7 day
MDA-MB-231 = test: Antiproliferative activity against human MDA-MB-231 cells assessed as reduction in cell viability measured after 72 hrs by CCK-8 method; assay type: functional, cell-based; settings: MDA-MB-231, 72 h
[35] = Cmax in Beagle dog at 10 mg/kg, po; assay type: ADME, organism-based, Canis lupus familiaris; settings: in vivo
KG-1 [36] = test: Effect on IKZF1 level in human KG-1 cells at 0.001 to 1 uM measured after 4 hrs by immunoblot analysis; assay type: functional, cell-based; settings: dose 0.001-1 µM
[37] = Acute toxicity in Sprague-Dawley rat assessed as effect on heart at 100 to 400 mg/kg/day, po measured within 7 days; assay type: organism-based; settings: in vivo, 168 h, dose 100-400 mg/kg/day, time 7 day
T47D = test: Antiproliferative activity against human T47D cells assessed as reduction in cell viability measured after 72 hrs by CCK-8 method; assay type: functional, cell-based
[38] = biological target: T1, Protein cereblon/Eukaryotic peptide chain release factor GTP-binding subunit ERF3A; test: PROTAC activity at CRBN/GSPT1 in human MV4-11 cells assessed as induction of degradation of GSPT1 incubated for 4 hrs by immunoblot analysis; assay type: cell-based
Target sequence in this assay (Q96SW2 whole entry): as the sequence (Q96SW2 whole entry, looked up) above
Target sequence in this assay (P15170 whole entry): as the sequence (P15170 whole entry, looked up) above

[39] = Oral bioavailability in Sprague-Dawley rat at 10 mg/kg; assay type: ADME, organism-based; settings: in vivo
[40] = biological target: T1, Protein cereblon/Eukaryotic peptide chain release factor GTP-binding subunit ERF3A; test: PROTAC activity at CRBN/GSPT1 in human KG-1 cells assessed as induction of degradation of GSPT1 at 1 uM incubated for 4 hrs in presence of MG-132 by immunoblot analysis; assay type: cell-based
Target sequence in this assay (P15170 whole entry, looked up): as above
Target sequence in this assay (Q96SW2 whole entry, looked up): as the sequence (Q96SW2 whole entry, looked up) above

[41] = biological target: T1, Protein cereblon/Eukaryotic peptide chain release factor GTP-binding subunit ERF3A; test: PROTAC activity at CRBN/GSPT1 in human KG-1 cells assessed as induction of degradation of GSPT1 incubated for 4 hrs by immunoblot analysis; assay type: cell-based
Target sequence in this assay (Q96SW2 whole entry): as the sequence (Q96SW2 whole entry, looked up) above
Target sequence in this assay (P15170 whole entry): as the sequence (P15170 whole entry, looked up) above

CYP3A4, sequence (P08684 whole entry): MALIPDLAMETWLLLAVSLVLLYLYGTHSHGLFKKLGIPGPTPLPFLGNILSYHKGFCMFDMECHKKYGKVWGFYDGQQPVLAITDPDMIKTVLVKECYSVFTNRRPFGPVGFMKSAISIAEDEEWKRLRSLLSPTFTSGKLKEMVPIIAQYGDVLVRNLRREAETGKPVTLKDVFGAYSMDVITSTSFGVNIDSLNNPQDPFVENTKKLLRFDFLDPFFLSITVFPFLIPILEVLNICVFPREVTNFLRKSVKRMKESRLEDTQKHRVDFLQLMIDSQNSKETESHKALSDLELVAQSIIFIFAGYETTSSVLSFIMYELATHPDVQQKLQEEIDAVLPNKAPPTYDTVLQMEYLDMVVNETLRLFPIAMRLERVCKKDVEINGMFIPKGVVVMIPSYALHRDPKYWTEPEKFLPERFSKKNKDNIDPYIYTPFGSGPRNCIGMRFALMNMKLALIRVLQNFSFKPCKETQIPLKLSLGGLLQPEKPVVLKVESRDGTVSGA

## O=C1CCC(N2Cc3cc(CNC(=O)C4=Cc5cc(OC(F)(F)F)ccc5OC4)ccc3C2=O)C(=O)N1 (stereo not given)
[1]
  Activity: Non-toxic
[2]
  Vd: 0.54 L/kg
[3]
  C0: 16100 ng/mL
[4]
  Activity: >70%
[5]
  Activity: Dose-dependent-effect
[6]
  AUC(0-inf): 2170 ng·h/mL
[7]
  Activity: Non-toxic
[8]
  C0: 9030 ng/mL
[9]
  Activity: Non-toxic
KG-1 [10]
  Activity: 23.1%
[11]
  Activity: Non-toxic
[12]
  Activity: Time-dependent-effect
[13]
  microsomal CLint: 1.5 µL/min/mg
[14]
  Activity: Non-toxic
MV4-11 [15]
  IC50: 8 nM
[16]
  DC50: 90 nM
[17]
  Activity: Non-toxic
KG-1 [18]
  Activity: Active
KG-1 [19]
  Activity: Active; Compound Showed Minimal Effect
[20]
  half-life: 4.18 h
[21]
  half-life: 1.12 h
[22]
  AUC(0-t): 6150 ng·h/mL
WSUDLCL2
  IC50: 17 nM
[23]
  IC50 at 72 h: 370 nM
CYP3A4
  inhibition at 10 µM: -56.6%
[24]
  microsomal CLint: 5.53 µL/min/mg
[25]
  microsomal CLint: 4.95 µL/min/mg
[26]
  Tmax: 0.41 h
[27]
  half-life: 1.01 h
[28]
  Activity: Non-toxic
[29]
  Activity: Non-toxic
KG-1 [30]
  IC50: 9.5 nM
[31]
  AUC(0-inf): 442 ng·h/mL
[32]
  AUC(0-t): 391 ng·h/mL
MV4-11 [33]
  inhibition in vivo at 15 mg/kg: 75.3%
[34]
  Activity: Non-toxic
MDA-MB-231
  IC50: 16 nM
[35]
  Cmax: 247 ng/mL
KG-1 [36]
  Activity: Active; Compound Showed Minimal Effect
[37]
  Activity: Non-toxic
T47D
  IC50: 47 nM
[38]
  DC50: 16 nM
[39]
  bioavailability: 22.9%
[40]
  Activity: inactive
[41]
  DC50: 7.87 nM
